One series is described as follows: Plasma compatibility. It counts as physicochemical. The procedure: The plasma compatibility of exemplary peptidomimetic macrocycles was also determined. Peptidomimetic macrocycles with a plasma compatability value (PC) that is greater than 0.1 were determined as being plasma compatible.
Series [1] can be described thus: Plasma PK/PD study in rats. It counts as in vivo, rat. As to conditions: male Sprague-Dawley rats. On the procedure: Five peptidomimetic macrocycles of the invention, as well as sermorelin, were studied to determine pharmacokinetic and pharmacodynamic parameters in rats. Male Sprague-Dawley rats (300 g, non-fasted, cannulated) were used. The study had three arms: IV administration, SC administration, and SC administration (vehicle control). For experiments using sermorelin, a dose level of 3 mg/kg IV/SC bolus was used (dose volume of […] dose and dose concentration of 1 mg/mL). The vehicle used was: 10 wt % N, N-Dimethylacetamide, 10 wt % DMSO, 2 wt % Solutol HS 15 in water for injection containing 45 mg/mL (4.5 wt %) Mannitol and 25 mM (0.38 wt %) Histidine (pH 7.5; 320 mOsm/kg). The peptide was first dissolved at high concentration in DMA and DMSO before a second dilution in Solutol vehicle.
For experiments using peptidomimetic macrocycles, 0.1 mL of DMA and 0.1 mL of DMSO were used to combine with each mg of macrocycle (˜4.3-4.5 mg of macrocycle used in each experiment). Sonication was used to ensure complete solubilization. 0.8 mL of Solutol vehicle was used for each mg of macrocycle in DMA/DMSO. The solutions were mixed gently with pipet or light vortexing. Fresh vials were used for each day of dosing, and macrocycles were stored solid at −20° C. prior to formulation.
For each study arm, 2 rats were bled (350 μL) at specific time points (5 min, 15 min, 30 min, 1 h, 2 h, 4 h, 8 h, 24 h, and 48 h) and a 150 μL bleed was performed just before dosing. Plasma was prepared into K2EDTA tubes by centrifuging for 20 minutes at 4° C. at 2000G maximum 30 minutes after collection. From each 350 μL bleed, 120 μL were transferred to one tube for PK studies and 50 μL to another tube for PD studies and frozen immediately. From the 150 μL bleed, 70 μL were transferred to one tube for PD studies and frozen immediately.

Series [2] concerns the target T1, VIPR1 (Vasointestinal Peptide Receptor 1) (Homo sapiens, UniProt P32241).
T1 construct: host or cells: CHO-K1 (cAMP Hunter eXpress VIPR1 CHO-K1 GPCR assay kit)
T1 sequence (P32241 31-457): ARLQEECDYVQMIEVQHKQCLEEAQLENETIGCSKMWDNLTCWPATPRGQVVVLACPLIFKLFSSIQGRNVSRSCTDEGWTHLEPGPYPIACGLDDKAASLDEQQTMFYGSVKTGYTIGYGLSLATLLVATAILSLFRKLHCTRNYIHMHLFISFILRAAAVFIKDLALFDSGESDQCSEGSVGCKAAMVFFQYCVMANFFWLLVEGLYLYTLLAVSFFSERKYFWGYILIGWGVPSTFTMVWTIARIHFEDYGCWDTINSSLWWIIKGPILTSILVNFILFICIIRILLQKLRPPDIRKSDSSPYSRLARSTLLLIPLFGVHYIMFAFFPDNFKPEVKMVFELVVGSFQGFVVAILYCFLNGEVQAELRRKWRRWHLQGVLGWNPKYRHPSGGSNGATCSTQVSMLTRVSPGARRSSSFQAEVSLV
As to the kind of experiment: DiscoverX cAMP Hunter eXpress VIPR1 CHO-K1 GPCR assay. Type of series: cell-based. As to conditions: VIPR1 CHO-K1 cells. The source says:
DiscoverX cAmP Hunter eXpress VIPRI CHO-K1 GPCR and GHRHR CHO-K1 GPCR assays kits were used. The DiscoverX kits contain naturally coupled GPCR cell lines designed to detect GPCR signaling through second messenger activation. This signaling involves a membrane bound enzyme called adenylate cyclase. […] receptors modulate cAMP by either inhibiting or stimulating adenylate cyclase, respectively. The DiscoverX cell lines included in the kits utilize the natural coupling status of the GPCR to monitor activation of […] receptors. Following ligand stimulation, the functional status of the GPCR is monitored by measuring cellular cAMP levels using a homogeneous, gain of signal competitive immunoassay based on Enzyme Fragment Complementation (EFC). The amount of EFC is measured by analysis with a fluorescent plate reader.
On the day before the assay, the DiscoverX cell lines were defrosted, plated into 384 well plates and allowed to incubate overnight. All the samples were diluted to 2 mM using 100% DMSO. The vials were sonicated and centrifuged to assure all peptides went into solution. The final volumes were small, 80-200 μl. An 80% purity and peptide content was assumed for all samples and dilutions were based on the molecular weights. On the day of the assay, the samples were diluted to 200 μM in water and then to 4 μM in DiscoverX assay buffer (supplemented with 0.1% BSA). Serial dilutions were performed on assay day, 16 dilutions from 1000 nM were run side by side in duplicate for each peptide for study. The assays were performed in the 384 well plates with the assistance of a CyBio Bi-Well 384 channel liquid handling robot. The samples were analyzed on a Tecan Ultra Evolution plate reader according to DiscoverX guidelines. The EC50 values were determined using GraphPad Prism software. The EC50 value is defined as the concentration of agonist that provokes a response halfway between the baseline and maximum response.
DiscoverX™ cAmP Hunter eXpress VIPR1 CHO-K1 GPCR and GHRHR CHO-K1 GPCR assay kits were used. On the day before the assay, the DiscoverX™ cell lines were defrosted, plated into 384 well plates and allowed to incubate overnight. All the samples were diluted to 2 mM using 100% DMSO. The vials were sonicated and centrifuged to assure all peptides went into solution. The final volumes were small, 80-200 μl. An 80% purity and peptide content was assumed for all samples and dilutions were based on the molecular weights. On the day of the assay, the samples were diluted to 200 μM in water and then to 4 μM in DiscoverX™ assay buffer (supplemented with 0.1% BSA). Serial dilutions were performed on assay day, 16 dilutions from 1000 nM were run side by side in duplicate for each peptide for study. The assays were performed in the 384 well plates with the assistance of a CyBio™ Bi-Well 384 channel liquid handling robot. The samples were analyzed on a Tecan™ Ultra Evolution plate reader according to DiscoverX™ guidelines. The EC50 values were determined using GraphPad™ Prism software. The EC50 value is defined as the concentration of agonist that provokes a response halfway between the baseline and maximum response. (+=>25 nM; ++=>10-25 nM; +++=>1-10 nM; ++++=>0.1-1 nM; +++++=<0.1 nM). […]

Another series deals with T2, GHRHR (Homo sapiens, UniProt Q02643).
T2 construct: host or cells: CHO-K1 (cAMP Hunter eXpress GHRHR CHO-K1 GPCR assay kit)
T2 sequence (Q02643 23-423): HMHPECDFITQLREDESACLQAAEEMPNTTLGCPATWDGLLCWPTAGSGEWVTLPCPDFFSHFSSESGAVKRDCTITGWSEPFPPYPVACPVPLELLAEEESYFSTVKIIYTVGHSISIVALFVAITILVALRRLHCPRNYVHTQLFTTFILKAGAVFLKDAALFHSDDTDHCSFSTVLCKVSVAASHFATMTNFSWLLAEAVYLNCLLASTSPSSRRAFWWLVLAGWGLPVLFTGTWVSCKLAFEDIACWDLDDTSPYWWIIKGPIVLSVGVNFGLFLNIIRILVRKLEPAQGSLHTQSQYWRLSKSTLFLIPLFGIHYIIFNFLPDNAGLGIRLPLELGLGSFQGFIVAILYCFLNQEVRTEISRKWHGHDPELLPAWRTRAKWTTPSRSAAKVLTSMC
The series is described as follows: DiscoverX cAMP Hunter eXpress GHRHR CHO-K1 GPCR assay. It counts as cell-based.

This is an account of results in US20180371044A1, “PEPTIDOMIMETIC MACROCYCLES” (Aileron Therapeutics, Inc., priority 2015, published 2018).

The structures appear in SMILES notation. pEC50: −log10 of the molar value. Where a SMILES comes first, the peptide text is derived from it. Bridges are numbered along the chain shown (N, C = ends). [ ]: non-standard residue; d: D form. NMeY = CN[C@@H](Cc1ccc(O)cc1)C(=O)O; S5 = C=CCCC[C@](C)(N)C(=O)O; Nle = CCCC[C@H](N)C(=O)O

Protocol for GHRHR: DiscoverX cAmP Hunter eXpress VIPRI CHO-K1 GPCR and GHRHR CHO-K1 GPCR assays kits were used. […] Following ligand stimulation, the functional status of the GPCR is monitored by measuring cellular cAMP levels using a homogeneous, gain of signal competitive immunoassay based on Enzyme Fragment Complementation (EFC). The amount of EFC is measured by analysis with a fluorescent plate reader.
DiscoverX™ cAmP Hunter eXpress VIPR1 CHO-K1 GPCR and GHRHR CHO-K1 GPCR assay kits were used. On the day before the assay, the DiscoverX™ cell lines were defrosted, plated into 384 well plates and allowed to incubate overnight. All the samples were diluted to 2 mM using 100% DMSO. The vials were sonicated and centrifuged to assure all peptides went into solution. The final volumes were small, 80-200 μl. An 80% purity and peptide content was assumed for all samples and dilutions were based on the molecular weights. On the day of the assay, the samples were diluted to 200 μM in water and then to 4 μM in DiscoverX™ assay buffer (supplemented with 0.1% BSA). Serial dilutions were performed on assay day, 16 dilutions from 1000 nM were run side by side in duplicate for each peptide for study. The assays were performed in the 384 well plates with the assistance of a CyBio™ Bi-Well 384 channel liquid handling robot. The samples were analyzed on a Tecan™ Ultra Evolution plate reader according to DiscoverX™ guidelines. The EC50 values were determined using GraphPad™ Prism software. The EC50 value is defined as the concentration of agonist that provokes a response halfway between the baseline and maximum response. […] The selectivity value is the concentration of agonist that provokes a response halfway between the baseline and maximum response in VIPR1 CHO-K1 cells divided by the concentration of agonist that provokes a response halfway between the baseline and maximum response in GHRHR CHO-K1 cells.

As to `CC/C=C/CC(=O)N[C@@H](Cc1ccc(O)cc1)C(=O)N[C@@H](C)C(=O)N[C@@H](CC(=O)O)C(=O)N[C@@H](C)C(=O)N[C@H](C(=O)N[C@@H](Cc1ccccc1)C(=O)N[C@H](C(=O)N[C@@H](CC(N)=O)C(=O)N[C@@H](CO)C(=O)N[C@@H](Cc1ccc(O)cc1)C(=O)N[C@@H](CCCNC(=N)N)C(=O)N[C@@H](CCCCN)C(=O)N[C@H](C(=O)N[C@@H](CC(C)C)C(=O)NCC(=O)N[C@@H](CCC(N)=O)C(=O)N[C@@H](CC(C)C)C(=O)N[C@@H](CO)C(=O)N[C@@H](C)C(=O)N[C@@H](CCCNC(=N)N)C(=O)N[C@@H](CCCCN)C(=O)N[C@@H](CC(C)C)C(=O)N[C@@H](CC(C)C)C(=O)N[C@@H](CCC(N)=O)C(=O)N[C@@H](CC(=O)O)C(=O)N[C@H](C(=O)N[C@@H](CCSC)C(=O)N[C@@H](CO)C(=O)N[C@@H](CCCNC(=N)N)C(=O)N[C@@H](CCC(N)=O)C(=O)N[C@@H](CCC(N)=O)C(=O)NCC(=O)N[C@@H](CCC(=O)O)C(=O)N[C@@H](CO)C(=O)N[C@@H](CC(N)=O)C(=O)N[C@@H](CCC(N)=O)C(=O)N[C@@H](CCC(=O)O)C(=O)N[C@@H](CCCNC(=N)N)C(=O)NCC(=O)N[C@@H](C)C(=O)N[C@@H](CCCNC(=N)N)C(=O)N[C@@H](C)C(=O)N[C@@H](CCCNC(=N)N)C(=O)N[C@@H](CC(C)C)C(N)=O)[C@@H](C)CC)C(C)C)[C@@H](C)O)[C@@H](C)CC` [SP-1, reference compound], the “Plasma Compatability” value in the series “Plasma compatibility” came to 3.5 mg/mL. Besides, in series [1], the “AUC Ext (%)” value was 13.8%. Moreover, the MRT in series [1] (rat, 3 mg/kg) was determined as 1.6 h. In addition, in series [1] (rat, 3 mg/kg, read-out: Clp (converted)), the clearance is 2.85 mL/min/kg. Also, the Vd in series [1] (rat, 3 mg/kg, read-out: Vdss) is 0.267 L/kg. Also, the half-life in series [1] (rat, 3 mg/kg, read-out: t ½ (converted)) was 55.1 h. The molecule further came in with an AUC(0-inf) in series [1] (rat, 3 mg/kg, route not given) of 17500 ng·h/mL.
Turning to `CC[C@H](C)[C@H](NC(=O)[C@H](C)NC(=O)[C@H](CC(=O)O)NC(=O)[C@H](C)NC(=O)[C@@H](N)Cc1ccc(O)cc1)C(=O)N[C@@H](Cc1ccccc1)C(=O)N[C@H](C(=O)N[C@@H](CC(N)=O)C(=O)N[C@@H](CO)C(=O)N[C@@H](Cc1ccc(O)cc1)C(=O)N[C@@H](CCCNC(=N)N)C(=O)N[C@@H](CCCCN)C(=O)N[C@H](C(=O)N[C@@H](CC(C)C)C(=O)NCC(=O)N[C@@H](CCC(N)=O)C(=O)N[C@@H](CC(C)C)C(=O)N[C@@H](CO)C(=O)N[C@@H](C)C(=O)N[C@@H](CCCNC(=N)N)C(=O)N[C@@H](CCCCN)C(=O)N[C@@H](CC(C)C)C(=O)N[C@@H](CC(C)C)C(=O)N[C@@H](CCC(N)=O)C(=O)N[C@@H](CC(=O)O)C(=O)N[C@H](C(=O)N[C@@H](CCSC)C(=O)N[C@@H](CO)C(=O)N[C@@H](CCCNC(=N)N)C(N)=O)[C@@H](C)CC)C(C)C)[C@@H](C)O` [SP-2, reference compound], the “Plasma Compatability” value in the series “Plasma compatibility” was determined as 4.6 mg/mL. The same molecule had a pEC50 in series [2] of 9.00 to 10.00.
Turning to `CCCC[C@H](NC(=O)[C@@H](NC(=O)[C@H](CC(=O)O)NC(=O)[C@H](CCC(N)=O)NC(=O)[C@H](CC(C)C)NC(=O)[C@H](C)NC(=O)[C@H](CCCCN)NC(=O)[C@H](CCCNC(=N)N)NC(=O)[C@H](C)NC(=O)[C@H](CO)NC(=O)[C@]1(C)CCCC=CCCC[C@](C)(NC(=O)[C@H](CCCCN)NC(=O)[C@H](CCCNC(=N)N)NC(=O)[C@H](Cc2ccc(O)cc2)NC(=O)[C@H](CO)NC(=O)[C@H](CCC(N)=O)NC(=O)[C@@H](NC(=O)[C@H](Cc2ccccc2)NC(=O)[C@@H](NC(=O)[C@H](C)NC(=O)[C@H](CC(=O)O)NC(=O)[C@@H](C)NC(=O)[C@H](Cc2ccc(O)cc2)NC)[C@@H](C)CC)[C@@H](C)O)C(=O)N[C@@H](CC(C)C)C(=O)N[C@@H](C)C(=O)N[C@@H](CCC(N)=O)C(=O)N1)[C@@H](C)CC)C(=O)N[C@@H](CO)C(=O)N[C@@H](CCCNC(=N)N)C(N)=O` [SP-69] (H-[NMeY][dA]DAIFTQSYRK[S5]LAQ[S5]SARKALQDI[Nle]SR-NH2; staple 13-17), in the series “Plasma compatibility”, the “Plasma Compatability” value was determined as 1.6 mg/mL. The pEC50 was 9.00 to 10.00 in series [2] and 9.00 to 10.00 on GHRHR (GHRHR CHO-K1 cells, cAMP). In addition, the Selectivity entry at GHRHR (EC50 in VIPR1 CHO-K1 cells divided by EC50 in GHRHR CHO-K1 cells) was “+ (+=<5)”.
